From patent publication US20030017195A1, “Method for oral drug delivery” (priority 2001, published 2003)

Assays:
non-diabetic rats = assay: Intestinal delivery of insulin patches in non-diabetic rats (blood glucose); format: in vivo, Sprague Dawley (SD) rats; conditions: 10 IU/kg in the intestine
Description: Intestinal delivery of insulin patches in non-diabetic rats: All animal experiments were4conducted under aseptic conditions using institutionally approved protocols. Male Sprague Dawley (SD) rats, weighing 350-450 g fasted for 16 hours were anesthetized using gas anesthesia (1.25-4% isofluorane in oxygen). Rat intestine was exposed through a midline abdominal incision (2.0 cm). A small longitudinal incision (5 mm) was made about 5 cm from the proximal end of the small intestine. Patches (3-6 pieces, 2 mm in diameter) containing insulin (0.4-1.2 IU/patch, totally 5 IU/kg or 10 Iu/kg per rat) were randomly inserted through the opening into the lumen. The incisions were then sealed by surgical tissue (NEXABAND®, Veterinary Products Laboratories, Phoenix, Ariz.). […] Blood glucose level was measured using a glucometer (Excite® XL, Bayer Corporation, Elkhart, Ind.). […] The areas above the glucose curve (AAC) were calculated by the trapezoidal method (Carino G P, Jacob J S, Mathiowitz E. 2000. Nanosphere based oral insulin delivery. J Controlled Release 65:261-269). The apparent relative pharmacological bioavailability of insulin from non-diabetic rats was calculated by comparing the AAC following intestinal administration under different doses with that following subcutaneous administration.

[1] = Leakage of drug from patch edges; format: physicochemical; conditions: within 10 minutes
Source text: In a regular patch without the microspheres structure, when the patch is cut into smaller pieces, drug in the reservoir layer easily leaks from along the breaking edges. In the presence of the microspheres structure, the breakpoint usually occurs between mircrospheres, which make it difficult for the drug to penetrate through the backing layer. So, with the help of microspheres structure, the leakage of drug from the patch can be substantially controlled. Though drug could leak from those microspheres along the edge, where their coating would possibly be broken, for microspheres located away from the edge no leakage can be seen. In a quantitative measurement, within 10 minutes, 60% of sulforhodamine B was lost from the edges in patch.without microspheres structure, while only 10% leaked in the presence of this microspheres structure.

[2] = format: in vitro ADME, rat
Description: The experiment was performed in an in vitro perfusion device.
Patches (2 mm×2 mm) were put into intestine lumen (3 cm in length). One end of the lumen was connected to an infusion inlet, while the other end was connected to a receiving tube. Phosphate buffer solution (PBS) was infused in a constant rate (0.05 ml/min) into the lumen. The entire device was placed on a magnetic stirrer panel, and samples were taken from PBS outside the lumen at predetermined time interval. […] This perfusion system mimics in-vivo intestine fluid movement.
Bioavailability of drug transport from these patches was calculated. Bioavailability refers to the ratio of the amount of drug transported across the intestine to the total amount of drug released at the site of absorption.

[3] = Unidirectional release of drug from compressed patches in diffusion cell (PBS); format: physicochemical
Description: (2) Unidirectional Release of Drug from Compressed Patches: Release of a model drug (Sulforhodamine B) from patches was measured in vitro into phosphate buffered saline (PBS, pH 7.4, 0.01 M). To distinguish drug release from the mucoadhesive side and the backing side of the patch, the patches were placed in a custom-designed diffusion cell. The cell comprised two chambers placed side-by-side with an opening provided between the chambers of about 3.14 mm^2. A patch (4 mm in diameter) was placed between the two chambers and each chamber was filled with 6 ml PBS. Vacuum grease was used to seal the joint to avoid leakage of PBS. Amount of sulforhodamine B released from either side of the patch into the solution was quantified at 565 nm using a spectrophotometer (UV-1601, Shimadzu Corporation).
To assess whether unidirectionality of release is also observed when the patch is placed on the intestine, the following experiments were performed. A section of pig intestine was placed on a diffusion cell such that the mucosal side faced the upper (donor) chamber. The donor chamber was filled with 2 ml PBS. Under these conditions, the thickness of the PBS layer on the intestine was about […]. A sulforhodamine-containing patch (4 mm in diameter) was prepared using methods described above was gently placed on the intestine. A stirring bar was placed on a mesh, which was placed about 1 cm above the patch. The receiver chamber was filled with 12 ml PBS. A stirring bar was placed in the receiver chamber. The cell was placed on a magnetic stirrer and stirred at 400 rpm for 120 minutes. Amount of sulforhodamine B released into donor and receiver chambers was measured using the same spectrophotometer described above. Percentages of sulforhodamine B delivered into the receiver and donor chambers were calculated (Figure 12). By measuring the total amount of sulforhodamine B released from the patch, the percent of sulforhodamine B delivered into the intestine was also calculated.

sulforhodamine B leaked from the edges ([1]; patch in the presence of microspheres structure) | sulforhodamine B lost from the edges ([1]; patch without microspheres structure) | fraction transported across rat intestine from patches compared to solution form [2] | difference in release profile when different compression pressures were used during patch preparation [3] | drug released from the backing side of the patch ([3]; 120 minutes, PBS pH 7.4) | drug released from the mucoadhesive side of the patch ([3]; 120 minutes, PBS pH 7.4) | share of released drug that was released from the mucoadhesive side ([3]; compressed patch) | Molecule | hypoglycemia after administration in the intestine (non-diabetic rats)
 |  |  |  |  |  |  | insulin solution: bovine insulin solution (pH 7), negative control administered in the intestine at 10 IU/kg | did not produce detectable hypoglycemia
10% | 60% | higher fraction | no significant difference | less than 0.3% | about 10% | more than 97% | CCN(CC)c1ccc2c(-c3ccc(S(=O)(=O)O)cc3S(=O)(=O)[O-])c3ccc(=[N+](CC)CC)cc-3oc2c1 [sulforhodamine B] | 
